From US20250353873A1, “COMPOUNDS AND METHODS FOR MODULATING APOE EXPRESSION” (Ionis Pharmaceuticals, Inc., priority 2024, published 2025)
Marks after values point to notes of the source that are not given here. Strand notation (5' to 3'): a small letter for the sugar, then the base; units joined by * are phosphorothioate-linked, units joined directly phosphodiester-linked; [ ] holds rarer units or linkages, { } end groups; capitals alone tell only the bases. [ms] = mesyl phosphoramidate linkage; k = constrained ethyl (cEt); [5mC] = 5-methylcytosine; d = 2'-deoxy (DNA)

Experiments:
human APOE RNA [1] = test: Dose-dependent reduction of human APOE RNA in HepG2 cells, electroporation, 20,000 cells per well, normalized to PPIA (Example 4, Table 11); format: cell-based; details: HepG2 cells, 20,000 cells per well, approximately 24 hours
Experimental: HepG2 cells plated at a density of 20,000 cells per well were treated by electroporation with various concentrations of modified oligonucleotide as specified in the tables below. […] APOE RNA levels were measured using the human primer probe set RTS3073 (described herein above). APOE RNA levels were normalized to human PPIA. Human PPIA was amplified using human primer probe set mk_cycloA_2nd (forward sequence […], designated herein as SEQ ID NO: 13; reverse sequence […], designated herein as SEQ ID NO: 14; probe sequence […], designated herein as SEQ ID NO: 15). Normalized results are presented in the table below as percent APOE RNA, relative to the amount of APOE RNA in untreated control cells (% UTC). The half maximal inhibitory concentration (IC50) of each modified oligonucleotide was calculated in GraphPad Prism 10 (GraphPad Software, San Diego, CA) and is also presented in the table below.

human APOE RNA [2] = test: Dose-dependent inhibition of human APOE RNA in HepG2 cells, electroporation, 50,000 cells per well, RT-PCR normalized to GAPDH (Example 4, Tables 8-10); format: cell-based; details: HepG2 cells, electroporation, Table 8
How it was run: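 Readout is percent APOE RNA versus untreated controls, measured by RT-PCR (primer probe set RTS3073) and normalized to human GAPDH. Modified oligonucleotides were delivered by electroporation at varying doses into HepG2 cells plated at 50,000 per well.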

human APOE RNA [3] = test: Activity in APOE C57BL/6NTac-Apoeem7250 knock-in mice, single ICV bolus, 16 weeks (Example 12); format: in vivo; details: single ICV bolus 300 μg, 16 weeks post treatment, normalized to mouse Ppia
How it was run: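 A single 300 μg intracerebroventricular dose was given, with PBS-treated mice as reference; cortical and spinal cord tissue was taken 16 weeks later. RT-qPCR quantified human APOE RNA, Ppia-normalized, expressed relative to PBS animals (% control).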

human APOE RNA [4] = test: Activity in APOE C57BL/6NTac-Apoeem7250 knock-in mice, single ICV bolus, 20 weeks (Example 13); format: in vivo; details: single ICV bolus 300 μg, 20 weeks post treatment, normalized to mouse Ppia
How it was run: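 Cortical and spinal cord RNA was assayed by real-time RT-PCR for human APOE, normalized to mouse Ppia and reported as percent of PBS controls. Tissue was taken twenty weeks after one 300 μg intracerebroventricular bolus in APOE knock-in mice, 4 per group.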

human APOE RNA [5] = test: Duration of action study in APOE C57BL/6NTac-Apoeem7250 knock-in mice (Example 18); format: in vivo; details: single ICV bolus 300 μg, APOE knock-in mice, normalized to mouse Ppia, relative to PBS
Experimental: Modified oligonucleotides described above were tested in the APOE C57BL/6NTac-Apoeem7250 knock-in model (described above).
Each mouse received a single intracerebroventricular (ICV) bolus of 300 μg of modified oligonucleotide. A group of 4-6 mice received a single ICV bolus with PBS as a negative control.
Mice were sacrificed at various timepoints as indicated in the table below and RNA was extracted from cortical brain tissue and spinal cord for quantitative real-time RT-PCR analysis of RNA expression of APOE using primer probe set RTS3073 (described herein above). APOE RNA levels were normalized to mouse Ppia. Mouse Ppia was amplified using primer probe set m_cyclo24 (described herein above). Results are presented as percent human APOE RNA relative to the amount of human APOE RNA in PBS treated animals, (% control). Each experiment is identified in separate tables below.

Substance: ^mCksTksTksGdzGdzTdzGdzAdzAdzTds^mCdsTdsTdsTdsAdsTdsTksAksAdzAk (antisense k[5mC]*kT*kT*dG[ms]dG[ms]dT[ms]dG[ms]dA[ms]dA[ms]dT*d[5mC]*dT*dT*dT*dA*dT*kT*kA*dA[ms]kA) [Compound No. 1785602]
- APOE RNA (% UTC) 5 nM (human APOE RNA [1]; PPIA-normalized, 5 nM): 75 % UTC
- APOE RNA (% UTC) 13 nM (human APOE RNA [1]; PPIA-normalized, 13 nM): 85 % UTC
- APOE RNA (% UTC) 33 nM (human APOE RNA [1]; PPIA-normalized, 33 nM): 75 % UTC
- APOE RNA (% UTC) 82 nM (human APOE RNA [1]; PPIA-normalized, 82 nM): 62 % UTC
- APOE RNA (% UTC) 205 nM (human APOE RNA [1]; PPIA-normalized, 205 nM): 44 % UTC
- APOE RNA (% UTC) 512 nM (human APOE RNA [1]; PPIA-normalized, 512 nM): 31 % UTC
- APOE RNA (% UTC) 1,280 nM (human APOE RNA [1]; PPIA-normalized, 1,280 nM): 16 % UTC
- APOE RNA (% UTC) 3,200 nM (human APOE RNA [1]; PPIA-normalized, 3,200 nM): 10 % UTC
- APOE RNA (% UTC) 8,000 nM (human APOE RNA [1]; PPIA-normalized, 8,000 nM): 8 % UTC
- APOE RNA (% UTC) 20,000 nM (human APOE RNA [1]; PPIA-normalized, 20,000 nM): 2 % UTC
- IC50 (human APOE RNA [1]; reduction of human APOE RNA, PPIA-normalized): 0.14 µM
- APOE RNA (% UTC) 5 nM (human APOE RNA [2]; 24-hour treatment, 5 nM): 96 % UTC
- APOE RNA (% UTC) 13 nM (human APOE RNA [2]; 24-hour treatment, 13 nM): 109 % UTC
- APOE RNA (% UTC) 33 nM (human APOE RNA [2]; 24-hour treatment, 33 nM): 83 % UTC
- APOE RNA (% UTC) 82 nM (human APOE RNA [2]; 24-hour treatment, 82 nM): 64 % UTC
- APOE RNA (% UTC) 205 nM (human APOE RNA [2]; 24-hour treatment, 205 nM): 55 % UTC
- APOE RNA (% UTC) 512 nM (human APOE RNA [2]; 24-hour treatment, 512 nM): 27 % UTC
- APOE RNA (% UTC) 1,280 nM (human APOE RNA [2]; 24-hour treatment, 1,280 nM): 18 % UTC
- APOE RNA (% UTC) 3,200 nM (human APOE RNA [2]; 24-hour treatment, 3,200 nM): 11 % UTC
- APOE RNA (% UTC) 8,000 nM (human APOE RNA [2]; 24-hour treatment, 8,000 nM): 8 % UTC
- APOE RNA (% UTC) 20,000 nM (human APOE RNA [2]; 24-hour treatment, 20,000 nM): 4 % UTC
- IC50 (human APOE RNA [2]; reduction of human APOE RNA, 24-hour treatment): 0.22 µM
- APOE RNA (% control) Cortex (human APOE RNA [3]; cortex): 38 % control
- APOE RNA (% control) Spinal Cord (human APOE RNA [3]; spinal cord): 20 % control
- APOE RNA (% control) Cortex (human APOE RNA [4]; cortex): 53 % control
- APOE RNA (% control) Spinal Cord (human APOE RNA [4]; spinal cord): 28 % control
- APOE RNA (% control) Cortex (human APOE RNA [5]; 196 days post-dose): 56 % control
- APOE RNA (% control) Cortex (human APOE RNA [5]; 224 days post-dose): 79 % control
- APOE RNA (% control) Cortex (human APOE RNA [5]; 285 days post-dose): 84† % control
- APOE RNA (% control) Spinal Cord (human APOE RNA [5]; 196 days post-dose): 34 % control
- APOE RNA (% control) Spinal Cord (human APOE RNA [5]; 224 days post-dose): 56 % control
- APOE RNA (% control) Spinal Cord (human APOE RNA [5]; 285 days post-dose): 72† % control
